# Like-named read-outs stand apart in the source and are kept apart here. Square brackets hold non-standard residues; d marks the D form. Peptide text beside a SMILES is read from it. * marks the point of attachment. NH((S)-1-NMe2-3-Me-but-2-yl) = CC(C)[C@@H](CN(C)C)N*; dVal(3-OH) = CC(C)(O)[C@@H](N)C(=O)O; d(aIle) = CC[C@H](C)[C@@H](N)C(=O)O; Val(3-OH) = CC(C)(O)[C@H](N)C(=O)O; ΔVal = CC(C)=C(N)C(=O)O
# Columns and labels:
# [1] = test system: lung fibroblast MRC5 cell line; assay: cells; settings: read-out: Aver IC50, MRC5
# Protocol: (§1) The antiproliferative activity profiles of 1a, its full-length analogs 2a and 2b, and its partial structures (23, 24, 26, and 30) were determined by in vitro screening in 72 hours MTS cell proliferation assays against a panel of 18 different human cancer cell lines. […] The three peptides were also evaluated for their antiproliferative activity against the lung fibroblast MRC5 cell line.
# (§2) Cells (40 µ L) are added into individual wells of a 384-well black/clear bottom plate on day zero at concentrations enabling continuous log growth over the course of the assay. On day one, compounds (or DMSO) are transferred using an ATS-liquid handler (100 nL per well) to individual wells containing cells and the cells are treated for 72 hours (37 °C, 5% CO 2) prior to measuring proliferation using MTS reagent following manufacturer’s instructions. Net OD values are determined by subtracting the average OD values of cells (measured on day 1, T = 0) from average total OD value of cells (measured on day 4, T = 72h). IC 50 values are calculated using proprietary software (IC 50 values normalized against all compounds). Results represent n>2 independent studies (in duplicate).
# (§3) Table S1. Antiproliferative Data of Compounds 1a, 2a, 2b, 23, 24, 26, and 30.
# (§4) Table S2. Human Cell Line Descriptions.
# (§5) Human Cell Line* Description
# (§6) *All cells were obtained from ATCC and are authenticated
# THP1 = assay: cells; settings: read-out: Aver IC50, THP1
# Protocol: as §1, §2, §3, §4, §5, §6
# COLO678 = assay: cells; settings: read-out: Aver IC50, COLO678
# Protocol: as §1, §2, §3, §4, §5, §6
# CALU6 = assay: cells; settings: read-out: Aver IC50, CALU6
# Protocol: as §1, §2, §3, §4, §5, §6
# OVCAR3 = assay: cells; settings: read-out: Aver IC50, OVCAR3
# Protocol: as §1, §2, §3, §4, §5, §6
# HCT116 = assay: cells; settings: read-out: Aver IC50, HCT116
# Protocol: as §1, §2, §3, §4, §5, §6
# RAMOS = assay: cells; settings: read-out: Aver IC50, RAMOS
# Protocol: as §1, §2, §3, §4, §5, §6
# A549 = assay: cells; settings: read-out: Aver IC50, A549
# Protocol: as §1, §2, §3, §4, §5, §6
# HT29 = assay: cells; settings: read-out: Aver IC50, HT29
# Protocol: as §1, §2, §3, §4, §5, §6
# MV411 = assay: cells; settings: read-out: Aver IC50, MV411
# Protocol: as §1, §2, §3, §4, §5, §6
# A375 = assay: cells; settings: read-out: Aver IC50, A375
# Protocol: as §1, §2, §3, §4, §5, §6
# HL60 = assay: cells; settings: read-out: Aver IC50, HL60
# Protocol: as §1, §2, §3, §4, §5, §6
# NCIH1048 = assay: cells; settings: read-out: Aver IC50, NCIH1048
# Protocol: as §1, §2, §3, §4, §5, §6
# SNUC1 = assay: cells; settings: read-out: Aver IC50, SNUC1
# Protocol: as §1, §2, §3, §4, §5, §6
# U937 = assay: cells; settings: read-out: Aver IC50, U937
# Protocol: as §1, §2, §3, §4, §5, §6
# JURKAT = assay: cells; settings: read-out: Aver IC50, JURKAT
# Protocol: as §1, §2, §3, §4, §5, §6
# BXPC3 = assay: cells; settings: read-out: Aver IC50, BXPC3
# Protocol: as §1, §2, §3, §4, §5, §6
# PANC1005 = assay: cells; settings: read-out: Aver IC50, PANC1005
# Protocol: as §1, §2, §3, §4, §5, §6
# MCF7 = settings: read-out: Aver IC50, MCF7; MCF7 (Breast Carcinoma); MTS, 72 hours, 37 °C, 5% CO2, 384-well; n>2 independent studies (in duplicate)
# Protocol: as §1, §2, §3, §4, §5, §6
# [2] = MRC5 (Lung Fibroblast, noncancerous), MTS, 72 hours, 37 °C, 5% CO2, 384-well, n>2 independent studies (in duplicate)
# [3] = THP1 (Acute Monocytic Leukemia), MTS, 72 hours, 37 °C, 5% CO2, 384-well, n>2 independent studies (in duplicate)
# [4] = COLO678 (Colon Carcinoma), MTS, 72 hours, 37 °C, 5% CO2, 384-well, n>2 independent studies (in duplicate)
# [5] = CALU6 (Lung - Adenocarcinoma), MTS, 72 hours, 37 °C, 5% CO2, 384-well, n>2 independent studies (in duplicate)
# [6] = OVCAR3 (Ovary - Adenocarcinoma), MTS, 72 hours, 37 °C, 5% CO2, 384-well, n>2 independent studies (in duplicate)
# [7] = HCT116 (Colon Carcinoma), MTS, 72 hours, 37 °C, 5% CO2, 384-well, n>2 independent studies (in duplicate)
# [8] = RAMOS (Burkitt's lymphoma), MTS, 72 hours, 37 °C, 5% CO2, 384-well, n>2 independent studies (in duplicate)
# [9] = A549 (Lung - NSCLC), MTS, 72 hours, 37 °C, 5% CO2, 384-well, n>2 independent studies (in duplicate)
# [10] = HT29 (Colon Carcinoma), MTS, 72 hours, 37 °C, 5% CO2, 384-well, n>2 independent studies (in duplicate)
# [11] = MV411 (Acute Myeloid Leukemia), MTS, 72 hours, 37 °C, 5% CO2, 384-well, n>2 independent studies (in duplicate)
# [12] = A375 (Malignant Melanoma), MTS, 72 hours, 37 °C, 5% CO2, 384-well, n>2 independent studies (in duplicate)
# [13] = HL60 (Leukema - Promyelocytic), MTS, 72 hours, 37 °C, 5% CO2, 384-well, n>2 independent studies (in duplicate)
# [14] = NCIH1048 (Lung - SCLC), MTS, 72 hours, 37 °C, 5% CO2, 384-well, n>2 independent studies (in duplicate)
# [15] = SNUC1 (Colon Carcinoma), MTS, 72 hours, 37 °C, 5% CO2, 384-well, n>2 independent studies (in duplicate)
# [16] = U937 (Pro-monocytic, Human Myeloid Leukemia), MTS, 72 hours, 37 °C, 5% CO2, 384-well, n>2 independent studies (in duplicate)
# [17] = JURKAT (acute T-cell leukemia), MTS, 72 hours, 37 °C, 5% CO2, 384-well, n>2 independent studies (in duplicate)
# [18] = BXPC3 (Pancreatic - Adenocarcinoma), MTS, 72 hours, 37 °C, 5% CO2, 384-well, n>2 independent studies (in duplicate)
# [19] = PANC1005 (Pancreatic - Adenocarcinoma), MTS, 72 hours, 37 °C, 5% CO2, 384-well, n>2 independent studies (in duplicate)
SMILES,"IC50 [1, 2]",IC50 (THP1; [3]),IC50 (COLO678; [4]),IC50 (CALU6; [5]),IC50 (OVCAR3; [6]),IC50 (HCT116; [7]),IC50 (RAMOS; [8]),IC50 (A549; [9]),IC50 (HT29; [10]),IC50 (MV411; [11]),IC50 (A375; [12]),IC50 (HL60; [13]),IC50 (NCIH1048; [14]),IC50 (SNUC1; [15]),IC50 (U937; [16]),IC50 (JURKAT; [17]),IC50 (BXPC3; [18]),IC50 (PANC1005; [19]),also measured
CC[C@H](C)[C@@H](NC(C)=O)C(=O)N[C@@H](C(=O)N[C@H](C(=O)NC(C(=O)N[C@H](C)C(=O)N[C@@H](C(=O)N[C@H](C(=O)NC(C(=O)N[C@H](CN(C)C)C(C)C)=C(C)C)C(C)C)C(C)C)=C(C)C)C(C)(C)O)C(C)(C)O [Compound 24] (Ac-[d(aIle)][dVal(3-OH)][Val(3-OH)][ΔVal][dA][dV]V[ΔVal]-{NH((S)-1-NMe2-3-Me-but-2-yl)}),> 25 µM,> 25 µM,> 25 µM,> 25 µM,> 25 µM,> 25 µM,> 25 µM,> 25 µM,> 25 µM,> 25 µM,> 25 µM,> 25 µM,> 25 µM,24.9 µM,> 25 µM,> 25 µM,> 25 µM,> 25 µM,
CCC(CC)=C(NC(=O)CNC(=O)C(NC(=O)[C@@H](NC(=O)C(C)(C)C(=O)[C@@H](C)CC(C)C)[C@](C)(O)CC)=C(C)C)C(=O)N[C@@H](C(=O)NCCN(C)C)C(C)C [Compound 26],> 25 µM,> 25 µM,> 25 µM,> 25 µM,> 25 µM,> 25 µM,> 25 µM,> 25 µM,> 25 µM,> 25 µM,> 25 µM,> 25 µM,> 25 µM,> 25 µM,> 25 µM,> 25 µM,> 25 µM,> 25 µM,IC50 (MCF7): 6.34 µM
"CC(=O)O[C@H]1C(=O)[C@@]2(C)[C@H]([C@H](OC(=O)c3ccccc3)[C@]3(O)C[C@H](OC(=O)[C@H](O)[C@@H](NC(=O)c4ccccc4)c4ccccc4)C(C)=C1C3(C)C)[C@]1(OC(C)=O)CO[C@@H]1C[C@@H]2O [Paclitaxel, reference compound]",,,,,,,,,,,,,,,,,,,"IC50 ([1]; Homo sapiens, MRC5, 72 h): 0.0088 µM; IC50 (THP1; Homo sapiens, THP-1, 72 h): 0.0068 µM; IC50 (COLO678; Homo sapiens, COLO-678, 72 h): 0.024 µM; IC50 (CALU6; Homo sapiens, Calu-6, 72 h): 0.0036 µM; IC50 (OVCAR3; Homo sapiens, OVCAR-3, 72 h): 0.003 µM; IC50 (HCT116; Homo sapiens, HCT-116, 72 h): 0.0034 µM; IC50 (RAMOS; Homo sapiens, Ramos, 72 h): 0.0059 µM; IC50 (A549; Homo sapiens, A549, 72 h): 0.0046 µM; IC50 (HT29; Homo sapiens, HT-29, 72 h): 0.006 µM; IC50 (MV411; Homo sapiens, MV4-11, 72 h): 0.0044 µM; IC50 (A375; Homo sapiens, A-375, 72 h): 0.0077 µM; IC50 (HL60; Homo sapiens, HL-60, 72 h): 0.0097 µM; IC50 (NCIH1048; Homo sapiens, NCI-H1048, 72 h): 0.0047 µM; IC50 (SNUC1; Homo sapiens, SNU-C1, 72 h): 0.0265 µM; IC50 (U937; Homo sapiens, U-937, 72 h): 0.003 µM; IC50 (JURKAT; Homo sapiens, Jurkat, 72 h): 0.0053 µM; IC50 (BXPC3; Homo sapiens, BXPC-3, 72 h): 0.0055 µM; IC50 (PANC1005; Homo sapiens, Panc1005, 72 h): 0.0074 µM"
